From the NIST ThermoML archive (doi:10.1016/j.fluid.2008.03.013)

Conditions: Transpiration method

CCC1COC(=O)O1 (stereo unspecified) [1,2-butylene carbonate]
Liquid
Conditions	vapor or sublimation pressure [kPa]
288.6 K	0.00186
293.5 K	0.00284
298.5 K	0.00453
303.4 K	0.00649
307.3 K	0.0087
310.3 K	0.01164
313.3 K	0.01439
316.3 K	0.01837
319.3 K	0.02281
322.5 K	0.02805
327.4 K	0.04092
330.3 K	0.04839
333.6 K	0.06415
338.7 K	0.086
343.8 K	0.1159

CC1COC(=O)O1 (stereo unspecified) [4-methyl-1,3-dioxolan-2-one]
Liquid
Conditions	vapor or sublimation pressure [kPa]
298.4 K	0.0085
303.3 K	0.01247
308.2 K	0.0181
311.3 K	0.0223
313.2 K	0.02529
318.2 K	0.03723
321.2 K	0.04503
322.7 K	0.05193
324.2 K	0.05893
326.6 K	0.06788
329.6 K	0.08307
332.7 K	0.1019
335.7 K	0.1281
337.7 K	0.1375
338.8 K	0.1525
340.8 K	0.1721
341.8 K	0.1787
344.9 K	0.2178

O=C1OCCO1 [ethylene carbonate]
Conditions	vapor or sublimation pressure [kPa]
280.6 K, Crystal	0.00062
286.2 K, Crystal	0.00119
291.3 K, Crystal	0.002
295.5 K, Crystal	0.00325
299.4 K, Crystal	0.00472
303.2 K, Crystal	0.00675
304.4 K, Crystal	0.00785
306.4 K, Crystal	0.00907
308.4 K, Crystal	0.01077
310.3 K, Liquid	0.012
314.4 K, Liquid	0.01615
314.5 K, Liquid	0.01614
317.3 K, Liquid	0.02
320.3 K, Liquid	0.02499
320.4 K, Liquid	0.02475
323.5 K, Liquid	0.0305
324.4 K, Liquid	0.03281
327.4 K, Liquid	0.03939
328.6 K, Liquid	0.04312
331.3 K, Liquid	0.05119
333.6 K, Liquid	0.05962
335.4 K, Liquid	0.06848
338.7 K, Liquid	0.08312
341.4 K, Liquid	0.0978
342.3 K, Liquid	0.1031
343.8 K, Liquid	0.1094
345.2 K, Liquid	0.1213
347.6 K, Liquid	0.1379
349 K, Liquid	0.154
352.4 K, Liquid	0.1869
354 K, Liquid	0.2037
357.5 K, Liquid	0.2473
358.9 K, Liquid	0.2642
360.6 K, Liquid	0.292
363.2 K, Liquid	0.3283
364.1 K, Liquid	0.3486
366.7 K, Liquid	0.4047
369.5 K, Liquid	0.4694

O=C1OCC(CO)O1 (stereo unspecified) [glycerine carbonate]
Liquid
Conditions	vapor or sublimation pressure [kPa]
330.2 K	0.00029
333.2 K	0.00039
338.3 K	0.00062
343.2 K	0.00091
348.4 K	0.00144
351.2 K	0.00173
355.5 K	0.0025
359.8 K	0.00368
360.6 K	0.00362
363.7 K	0.00433
366.4 K	0.00542
369.4 K	0.00681
371.8 K	0.00782
373.2 K	0.00886
377.2 K	0.01171
384.5 K	0.02019
387.3 K	0.02392
388 K	0.02471
392.7 K	0.03339
398.5 K	0.04694
